# Measured values from ChEMBL document CHEMBL4765389, “Antimicrobial and anti-inflammatory activities of short dodecapeptides derived from duck cathelicidin: Plausible mechanism of bactericidal action and endotoxin neutralization” (Eur J Med Chem, 2020).
# Active and inactive are the calls of the source. The calls are words filed in the database; no cut-off is given here.
# Legend:
# [1] = Antibacterial activity against multidrug-resistant Pseudomonas aeruginosa CCARM 2095 assessed as fractional inhibitory concentration incubated for 24 hrs in presence of ciprofloxacin by CLSI based broth dilution method; format: functional
# [2] = Antibacterial activity against multidrug-resistant Pseudomonas aeruginosa CCARM 2095 assessed as reduction in bacterial growth incubated for 24 hrs in presence of oxacillin by CLSI based broth dilution method; format: functional; settings: read-out: MIC100
# Escherichia coli [3] = experiment: Antibacterial activity against Escherichia coli KCTC 1682 assessed as reduction in bacterial growth incubated for 24 hrs in presence of 4.5 mM KCl by CLSI based broth dilution method; format: functional; settings: read-out: MIC100
# [4] = Antibacterial activity against multidrug-resistant Pseudomonas aeruginosa CCARM 2109 assessed as reduction in bacterial growth incubated for 24 hrs by CLSI based broth dilution method; format: functional; settings: read-out: MIC100
# Staphylococcus aureus [5] = experiment: Antibacterial activity against methicillin-resistant Staphylococcus aureus CCARM 3090 assessed as fractional inhibitory concentration incubated for 24 hrs in presence of ciprofloxacin by CLSI based broth dilution method; format: functional
# [6] = Antibacterial activity against multidrug-resistant Pseudomonas aeruginosa CCARM 2095 assessed as fractional inhibitory concentration incubated for 24 hrs in presence of oxacillin by CLSI based broth dilution method; format: functional
# Salmonella typhimurium = experiment: Antibacterial activity against Salmonella typhimurium KCTC 1926 assessed as reduction in bacterial growth incubated for 24 hrs by CLSI based broth dilution method; format: functional, Salmonella enterica subsp. enterica serovar Typhimurium; settings: Salmonella enterica, read-out: MIC100
# Cell membrane [7] = experiment: Induction of cell membrane permeability in Escherichia coli KCTC 1682 assessed as […] at 16 uM by ONPG dye based spectrophotometry; format: subcellular
# Staphylococcus aureus [8] = experiment: Antibacterial activity against methicillin-resistant Staphylococcus aureus CCARM 3090 assessed as fractional inhibitory concentration incubated for 24 hrs in presence of chloramphenicol by CLSI based broth dilution method; format: functional
# Staphylococcus aureus [9] = experiment: Antibacterial activity against Staphylococcus aureus KCTC 1621 assessed as reduction in bacterial growth incubated for 24 hrs in presence of 150 mM NaCl by CLSI based broth dilution method; format: functional; settings: read-out: MIC100
# [10] = Therapeutic index, ratio of HC10 for sheep RBC to geometric mean MIC for gram negative bacteria; format: toxicity; settings: sheep red blood cells, read-out: TI
# DNA = experiment: Binding affinity to Escherichia coli pBR322 DNA assessed as increase in DNA retardation at 8 uM incubated for 1 hr by agarose gel electrophoresis relative to control; format: nucleic-acid assay
# [11] = Drug uptake in Escherichia coli KCTC 1682 assessed as cytoplasmic accumulation at 2 times MIC incubated for 30 mins by confocal laser scanning microscopy; format: ADME; settings: 0.5 h
# Staphylococcus aureus [12] = experiment: Antibacterial activity against Staphylococcus aureus KCTC 1621 assessed as reduction in bacterial growth incubated for 24 hrs in presence of 4 uM FeCl3 by CLSI based broth dilution method; format: functional; settings: read-out: MIC100
# [13] = Antibacterial activity against multidrug-resistant Pseudomonas aeruginosa CCARM 2095 assessed as reduction in bacterial growth incubated for 24 hrs in presence of ciprofloxacin by CLSI based broth dilution method; format: functional; settings: read-out: MIC100
# RAW264.7 [14] = experiment: Antiinflammatory activity against mouse RAW264.7 cells assessed as reduction in LPS-induced nitrite level at 5 uM incubated for 24 hrs by Griess reagent based assay relative to control; format: functional
# Enterococcus faecium = experiment: Antibacterial activity against vancomycin-resistant Enterococcus faecium ATCC 51559 assessed as reduction in bacterial growth incubated for 24 hrs by CLSI based broth dilution method; format: functional; settings: read-out: MIC100
# Escherichia coli [15] = experiment: Bactericidal activity against Escherichia coli KCTC 1682 assessed as reduction in colony forming unit at MIC measured at 3 hrs by time kill assay; format: functional
# Staphylococcus aureus [16] = experiment: Antibacterial activity against methicillin-resistant Staphylococcus aureus CCARM 3095 assessed as reduction in bacterial growth incubated for 24 hrs by CLSI based broth dilution method; format: functional; settings: read-out: MIC100
# [17] = Antibacterial activity against multidrug-resistant Pseudomonas aeruginosa CCARM 2095 assessed as fractional inhibitory concentration index incubated for 24 hrs in presence of oxacillin by CLSI based broth dilution method; format: functional
# Staphylococcus aureus [18] = experiment: Antibacterial activity against methicillin-resistant Staphylococcus aureus CCARM 3090 assessed as reduction in bacterial growth incubated for 24 hrs in presence of oxacillin by CLSI based broth dilution method; format: functional; settings: read-out: MIC100
# Lipopolysaccharide (LPS) = experiment: Inhibition of Escherichia coli O111:B4 LPS aggregation assessed as increase in FITC-LPS dissociation by spectrofluorometry
# Escherichia coli [19] = experiment: Antibacterial activity against Escherichia coli KCTC 1682 assessed as reduction in bacterial growth incubated for 24 hrs in presence of 1 mM MgCl2 by CLSI based broth dilution method; format: functional; settings: read-out: MIC100
# Escherichia coli [20] = experiment: Bacteriostatic activity against Escherichia coli KCTC 1682 assessed as reduction in colony forming unit at 0.5 times MIC measured for 24 hrs by time kill assay; format: functional
# Bacteria = experiment: Antibacterial activity against Gram positive bacteria assessed as reduction in bacterial growth incubated for 24 hrs by CLSI based broth dilution method; format: functional; settings: read-out: MIC100
# Staphylococcus aureus [21] = experiment: Antibacterial activity against Staphylococcus aureus KCTC 1621 assessed as reduction in bacterial growth incubated for 24 hrs in presence of 4.5 mM KCl by CLSI based broth dilution method; format: functional; settings: read-out: MIC100
# [22] = Antibacterial activity against multidrug-resistant Pseudomonas aeruginosa CCARM 2095 assessed as reduction in bacterial growth incubated for 24 hrs in presence of chloramphenicol by CLSI based broth dilution method; format: functional; settings: read-out: MIC100
# Escherichia coli [23] = experiment: Antibacterial activity against Escherichia coli KCTC 1682 assessed as reduction in bacterial growth incubated for 24 hrs in presence of 4 uM FeCl3 by CLSI based broth dilution method; format: functional; settings: read-out: MIC100
# Staphylococcus aureus [24] = experiment: Antibacterial activity against Staphylococcus aureus KCTC 1621 assessed as reduction in bacterial growth incubated for 24 hrs by CLSI based broth dilution method; format: functional; settings: read-out: MIC100
# [25] = Antibacterial activity against multidrug-resistant Pseudomonas aeruginosa CCARM 2095 assessed as fractional inhibitory concentration index incubated for 24 hrs in presence of ciprofloxacin by CLSI based broth dilution method; format: functional
# Candida albicans = experiment: Antifungal activity against Candida albicans KCTC 7965 assessed as reduction in fungal growth incubated for 24 hrs by CLSI based broth dilution method; format: functional; settings: read-out: MIC100
# Cell membrane [26] = experiment: Induction of cell membrane permeability in Escherichia coli KCTC 1682 assessed as cytoplasmic membrane […] fluorescent signals at 2 times MIC measured after 1 hr by propidium iodide dye based flow cytometry analysis (reference value: 9.8 %); format: subcellular
# RAW264.7 [27] = experiment: Antiinflammatory activity in mouse RAW264.7 cells assessed as neutralization of LPS binding by measuring LPS-FITC aggregation at 10 uM pretreated with LPS for 1 hr followed by compound addition and measured after 1 hr by flowcytometry analysis (reference value: 48.12 %); format: functional
# Cell membrane [28] = experiment: Induction of cell membrane permeability in Staphylococcus aureus KCTC 1621 assessed as cytoplasmic membrane depolarization at 16 uM by DiSC3-5 dye based spectrofluorometry; format: subcellular
# Staphylococcus aureus [29] = experiment: Antibacterial activity against Staphylococcus aureus KCTC 1621 assessed as reduction in bacterial growth incubated for 24 hrs in presence of 6 uM NH4Cl by CLSI based broth dilution method; format: functional; settings: read-out: MIC100
# Staphylococcus aureus [30] = experiment: Antibacterial activity against Staphylococcus aureus KCTC 1621 assessed as reduction in bacterial growth incubated for 24 hrs in presence of 1 mM MgCl2 by CLSI based broth dilution method; format: functional; settings: read-out: MIC100
Substance,FIC [1],MIC [2],MIC (Escherichia coli [3]),MIC [4],FIC (Staphylococcus aureus [5]),FIC [6],MIC (Salmonella typhimurium),Activity (Cell membrane [7]),FIC (Staphylococcus aureus [8]),MIC (Staphylococcus aureus [9]),selectivity ratio [10],Activity (DNA),Drug uptake [11],MIC (Staphylococcus aureus [12]),MIC [13],inhibition at 5 µM (RAW264.7 [14]),MIC (Enterococcus faecium),Activity (Escherichia coli [15]),MIC (Staphylococcus aureus [16]),fractional inhibitory concentration index (FICI) [17],other results
H-LIKKIYRKWKRW-NH2,0.125,64 µM,2 µM,8 µM,0.25,0.125,2 µM,inactive,0.25,8 µM,91.4,100%,Active,8 µM,64 µM,51.4%,8 µM,<2 log10CFU/ml,8 µM,0.375,MIC (Staphylococcus aureus [18]): 64 µM; inhibition (Lipopolysaccharide (LPS)): Dose-dependent effect; MIC (Escherichia coli [19]): 8 µM; Activity (Escherichia coli [20]): 3 log10CFU/ml; MIC (Bacteria): 7.1 µM; MIC (Staphylococcus aureus [21]): 4 µM; MIC [22]: 64 µM; MIC (Escherichia coli [23]): 8 µM; MIC (Staphylococcus aureus [24]): 4 µM; fractional inhibitory concentration index (FICI) [25]: 0.375; MIC (Candida albicans): 8 µM; Activity (Cell membrane [26]): 9.53%; Activity (RAW264.7 [27]): 24.41%; Activity (Cell membrane [28]): inactive; MIC (Staphylococcus aureus [29]): 8 µM; MIC (Staphylococcus aureus [30]): 4 µM
H-LWKKIYRKWKRW-NH2,0.125,64 µM,4 µM,4 µM,0.125,0.125,2 µM,inactive,0.25,2 µM,128,100%,Active,8 µM,64 µM,91.6%,8 µM,<2 log10CFU/ml,8 µM,0.375,MIC (Staphylococcus aureus [18]): 64 µM; inhibition (Lipopolysaccharide (LPS)): Dose-dependent effect; MIC (Escherichia coli [19]): 4 µM; Activity (Escherichia coli [20]): 3 log10CFU/ml; MIC (Bacteria): 6.8 µM; MIC (Staphylococcus aureus [21]): 4 µM; MIC [22]: 128 µM; MIC (Escherichia coli [23]): 8 µM; MIC (Staphylococcus aureus [24]): 2 µM; fractional inhibitory concentration index (FICI) [25]: 0.375; MIC (Candida albicans): 8 µM; Activity (Cell membrane [26]): 6.31%; Activity (RAW264.7 [27]): 15.47%; Activity (Cell membrane [28]): inactive; MIC (Staphylococcus aureus [29]): 2 µM; MIC (Staphylococcus aureus [30]): 4 µM
